# Results: patent publication US5604233A, “Lactone stable formulation of 7-ethyl camptothecin and methods for uses thereof” (priority 1994, dated 1997)
# “Also recorded” adds a separate entry of the source. Where two headings read alike, the source gives them in different places.
# Assays:
# [1] = cited from earlier work
# [2] = system: Topoisomerase I purified from human colon carcinoma cells or calf thymus; conditions: cited from earlier work
# [3] = cited from earlier work; remark: listed apart in the source
# [4] = system: Cervical cancer; conditions: 100 mg/m^2 weekly, 150 mg/m^2 weeks; cited from earlier work
# [5] = system: Leukemia/Lymphoma; conditions: cited from earlier work
# [6] = cited from earlier work; remark: listed apart in the source
# [7] = system: Refractory or Relapsed Small Cell Lung Ca; conditions: 100 mg/m^2 weekly; cited from earlier work
# [8] = system: Small Cell Lung Cancer; conditions: 100 mg/m^2/week; cited from earlier work
# [9] = system: Untreated Non Small Cell Lung Cancer; conditions: 100 mg/m^2 weekday; cited from earlier work
# [10] = Fractional amounts of lactone species of CPT-11 and HECPT (Rothenburg et al.); type: in vivo, human; conditions: Table 4
# From the text: Fractional Amounts of Lactone Species of CPT-11 and HECPT as
# Function of Increasing Single Dose LV. From Rothenburg et al.
# [11] = system: Tumor; conditions: cited from earlier work; for Toxicity: * dose limiting toxicity
# [12] = system: Colon cancer; conditions: 100 mg/m^2/week or 150 mg/m^2/Q 2 wks; cited from earlier work
# [13] = relative to parent compound; cited from earlier work
# [14] = system: human tumors; conditions: nude mice xenografts; cited from earlier work
# [15] = after CPT-11 versus HECPT administration; cited from earlier work
# [16] = system: MOLT3 cells; conditions: cited from earlier work
# [17] = system: DNA single-strand breaks; conditions: cells exposed to HECPT; cited from earlier work
# [18] = system: topoisomerase I; conditions: P388 cells; cited from earlier work
# [19] = system: L1210 leukemia; conditions: 10-100 mg/kg intraperitoneally; cited from earlier work
# [20] = system: P388 tumor; conditions: intermittent bolus days 1, 5, 9, i.p.; cited from earlier work
# [21] = system: topoisomerase I; conditions: cited from earlier work
# [22] = Pharmacokinetics of CPT-11 and HECPT, 5-day continuous infusion of CPT-11 (Ohe et al.); type: in vivo, human; conditions: e.g., above 30 mg/m^2/d
# From the text: Initially, patients may be treated in a dose escalation protocol to determine the maximal tolerated dose of the ECPT formulation. […] For the purpose of this invention, "AUC" is defined as "area under the curve" and "CpMax" is defined as "the maximum plasma concentrate at the end of I.V.
# [23] = U.S. Pat. No. 4,713,246; cited from earlier work
# [24] = mice; cited from earlier work
# [25] = system: preclinical tumor models; conditions: cited from earlier work
# [26] = first Rothenberg line, no dose given
smiles,measurement,setting,value
"CCc1c2c(nc3ccc(OC(=O)N4CCC(N5CCCCC5)CC4)cc13)-c1cc3c(c(=O)n1C2)COC(=O)[C@]3(O)CC [CPT-11, 7-Ethyl-10-[4-(1-piperidino)-1-piperidino]Carbonyloxy-Camptothecin]","Fractional amount of lactone species, CpMax Based",[1]; single dose I.V. CPT-11 50 mg/m^2,0.51
same,"Fractional amount of lactone species, CpMax Based",[1]; single dose I.V. CPT-11 80 mg/m^2,0.44
same,"Fractional amount of lactone species, CpMax Based",[1]; single dose I.V. CPT-11 100 mg/m^2,0.53
same,"Fractional amount of lactone species, CpMax Based",[1]; single dose I.V. CPT-11 125 mg/m^2,0.55
same,"Fractional amount of lactone species, CpMax Based",[1]; single dose I.V. CPT-11 150 mg/m^2,0.42
same,"Fractional amount of lactone species, CpMax Based",[1]; single dose I.V. CPT-11 180 mg/m^2,0.42
same,inhibition of purified topoisomerase I,[2],inhibited
same,AUC,[3]; CPT-11 50 mg/m^2/wkx4,2970 ng·h/mL
same,CpMax,[3]; CPT-11 50 mg/m^2/wkx4,1.70 µg/mL
same,AUC,[3]; CPT-11 100 mg/m^2/wkx4,2230 ng·h/mL
same,CpMax,[3]; CPT-11 100 mg/m^2/wkx4,1.29 µg/mL
same,AUC,[3]; CPT-11 150 mg/m^2/wk X4,2810 ng·h/mL
same,CpMax,[3]; CPT-11 150 mg/m^2/wk X4,1.56 µg/mL
same,AUC,[3]; CPT-11 180 mg/m^2/wk X4,3830 ng·h/mL
same,CpMax,[3]; CPT-11 180 mg/m^2/wk X4,1.97 µg/mL
same,AUC,[3]; [26],1130 ng·h/mL
same,CpMax,[3]; [26],0.89 µg/mL
same,Reported Toxicities: N/V,[4],51%
same,Reported Toxicities: Neutropenia,[4],89%
same,Reported Toxicities: alopecia,[4],38.1%
same,Reported Toxicities: diarrhea,[4],39.1%
same,Response (complete responses),[4],SCR
same,Response: PR,[4],8 PR
same,Response Rate (RR),[5]; 20 mg/m^2 bid x7,25%
same,Response Rate (PR),[5]; 40 mg/m^2 Q0x5,34%
same,Response Rate,[5]; 200 mg Q3,No resp.
same,Reported Toxicities: Gastrointestinal,[5]; in vivo,76%
same,Reported Toxicities: Neutropenia,[5]; in vivo,91%
same,Reported Toxicities,[5]; incidence not given,Thrombocytopenia
same,interpatient variability in AUC and metabolism to HECPT,[6]; 5-day continuous intravenous infusion,large range of interpatient variability
same,Reported Toxicities,[7],"Neutropenia, diarrhea"
same,Reported Toxicities: pneumonitis,[7],12.5%
same,Response (PRs),[7],7/15
same,Response Rate,[7],47%
same,Reported Toxicities: N/V,[8],61.5%
same,Reported Toxicities: alopecia,[8],40.0%
same,Reported Toxicities: diarrhea,[8],53.8%
same,Response: CRs,[8],2 CRs
same,Response: PRs,[8],7 PRs
same,Reported Toxicities,[9],"anorexia, alopecia; also recorded: Neutropenia diarrhea; also recorded: nausea, vomiting"
same,Response (PRs),[9],23/72
same,Response Rate,[9],31.9%
same,overall fractional concentration of the lactone species through a range of doses,[10],fairly constant
same,Toxicity,"[11]; Clavel et al, 90 min. QDx3 Q21 days, 115 mg/m^2/d (33-115)",Neutropenia* diarrhea; also recorded: nausea and vomiting; also recorded: alopecia
same,Tumor Type (responses),"[11]; Clavel et al, Breast",1 PR
same,Tumor Type (responses),"[11]; Clavel et al, Mesothelioma",1 PR
same,Toxicity,"[11]; Culine et al, 90 min. Q21 days, 150 mg/m^2/wk (50-150)","Neutropenia* diarrhea*; also recorded: vomiting, alopecia; also recorded: fatigue stomatitis"
same,Tumor Type (responses),"[11]; Culine et al, cervix",1 PR
same,Tumor Type (responses),"[11]; Culine et al, esophagus",1 PR
same,Tumor Type (responses),"[11]; Culine et al, ovarian",1 PR
same,Tumor Type (responses),"[11]; Culine et al, renal",1 PR
same,Toxicity,"[11]; Negoro et al, 30 min infusion, 100 mg/m^2 (50-150)","Diarrhea*, N/V"
same,Tumor Type (responses),"[11]; Negoro et al, NS CLC",2 PRs
same,Tumor Type (responses),"[11]; Ohe et al, 120 hr CI",None
same,Toxicity,"[11]; Rothenberg et al, 90 mg QWx4 Q42 days, 180 mg/m^2/wk (50-180)","Neutropenia, nausea; also recorded: vomiting, alopecia"
same,Tumor Type (responses),"[11]; Rothenberg et al, Colon Ca",2 PRs
same,Toxicity,"[11]; Rowinsky et al, 90 min infusion Q21 day, 240 mg/m^2 (100-345)",Neutropenia* vomiting; also recorded: diarrhea abd. pain; also recorded: flushing
same,Tumor Type (responses),"[11]; Rowinsky et al, Cervix Ca",1 PR
same,Tumor Type (responses),"[11]; Rowinsky et al, Colon Ca",1 PR
same,Reported Toxicities: NN,[12],35%
same,Reported Toxicities: Neutropenia,[12],53%
same,Reported Toxicities: diarrhea,[12],24%
same,Response (PR),[12],6/17
same,Response Rate,[12],46%
same,sporadic toxicities,[13],less sporadic toxicities
same,sensitivity of human tumors in relation to ability to produce HECPT,[14],independent of their ability to produce HECPT
"CCc1c2c(nc3ccc(O)cc13)-c1cc3c(c(=O)n1C2)COC(=O)[C@]3(O)CC [HECPT, 10-hydroxy 7-ethyl camptothecin]",plasma concentration of HECPT in mice,[15],maintained longer after CPT-11 administration than after treatment with HECPT
same,potency in generating single-strand DNA breaks relative to CPT-11,[16],approximately 1000 fold
same,inhibition of purified topoisomerase I,[2],inhibited
same,AUC,[3]; CPT-11 50 mg/m^2/wkx4,195.5 ng·h/mL
same,CpMax,[3]; CPT-11 50 mg/m^2/wkx4,0.0393 µg/mL
same,AUC,[3]; CPT-11 100 mg/m^2/wkx4,214.8 ng·h/mL
same,CpMax,[3]; CPT-11 100 mg/m^2/wkx4,0.0316 µg/mL
same,AUC,[3]; CPT-11 150 mg/m^2/wk X4,123.2 ng·h/mL
same,CpMax,[3]; CPT-11 150 mg/m^2/wk X4,0.0367 µg/mL
same,AUC,[3]; CPT-11 180 mg/m^2/wk X4,232.8 ng·h/mL
same,CpMax,[3]; CPT-11 180 mg/m^2/wk X4,0.0262 µg/mL
same,AUC,[3]; [26],62.2 ng·h/mL
same,greatest quantitative biochemical effect,[17],DNA single-strand breaks that occur during the S-phase
same,inhibitory activity against topoisomerase I relative to CPT-11,[18],3600 fold
same,AUC,[6]; CPT-11 25 mg/m^2/dx5,1080 ng·h/mL
same,CpMax,[6]; CPT-11 25 mg/m^2/dx5,0.0104 µg/mL
same,AUC,[6]; CPT-11 30 mg/m^2/dx5,960 ng·h/mL
same,AUC,[6]; CPT-11 35 mg/m^2/dx5,910 ng·h/mL
same,CpMax,[6]; CPT-11 35 mg/m^2/dx5,0.0068 µg/mL
same,AUC,[6]; CPT-11 40 mg/m^2/dx5,860 ng·h/mL
same,CpMax,[6]; CPT-11 40 mg/m^2/dx5,0.0080 µg/mL
same,toxicity of HECPT relative to CPT-11 (suggested),[6]; Ohe et al.,more toxic moiety
same,correlation between HECPT pharmacokinetics and dose or CPT-11 pharmacokinetics and toxicity,[6]; human subjects,lack of correlation
same,results relative to CPT-11 under the same conditions,[19],inferior
same,anti-tumor activity compared to CPT-11 in vivo,[20],little anti-tumor activity
same,reversibility of cleavable complex stabilization,[21],readily reversible
same,overall fractional concentration of the lactone species through a range of doses,[10],fairly constant
same,CpMax of HECPT with increases in dose of CPT-11,[22],decrease
COc1cc([C@@H]2c3cc4c(cc3[C@@H](O[C@@H]3O[C@@H]5CO[C@@H](C)O[C@H]5[C@H](O)[C@H]3O)[C@H]3COC(=O)[C@H]23)OCO4)cc(OC)c1O [etoposide],bioavailability following oral administration versus intravenous,[23],substantially equivalent
CC[C@@]1(O)C(=O)OCc2c1cc1n(c2=O)Cc2cc3ccccc3nc2-1 [lactone form of camptothecin],toxicity relative to sodium camptothecin,[24],10 fold
same,antitumor activity in preclinical studies,[25],significant antitumor activity
